Conditions: Liquid, Vibrating tube method

CCCCO [butan-1-ol]
Conditions | mass density [kg/m3]
293.15 K, 9042.1 kPa | 816.992
293.15 K, 10036 kPa | 817.626
293.15 K, 11947 kPa | 818.963
293.15 K, 14941 kPa | 820.924
293.15 K, 21987 kPa | 825.417
293.15 K, 27986 kPa | 829.06
293.15 K, 28066 kPa | 829.163
293.15 K, 33151 kPa | 832.036
293.15 K, 34099 kPa | 832.526
293.15 K, 35000 kPa | 833.078
293.15 K, 40081 kPa | 835.959
293.15 K, 42099 kPa | 837.008
293.15 K, 45068 kPa | 838.658
293.15 K, 54966 kPa | 843.81
293.15 K, 58072 kPa | 845.282
293.15 K, 66045 kPa | 849.224
293.16 K, 305.2 kPa | 810.686
293.16 K, 476.4 kPa | 810.81
293.16 K, 1045.2 kPa | 811.221
293.16 K, 7096.8 kPa | 815.616
293.16 K, 17889 kPa | 822.832
293.16 K, 19992 kPa | 824.147
293.16 K, 24983 kPa | 827.251
293.16 K, 29976 kPa | 830.11
293.16 K, 32232 kPa | 831.521
293.16 K, 38027 kPa | 834.783
293.16 K, 48022 kPa | 840.192
293.16 K, 50085 kPa | 841.31
293.16 K, 52032 kPa | 842.308
293.16 K, 60018 kPa | 846.257
293.16 K, 61962 kPa | 847.209
293.16 K, 64991 kPa | 848.649
298.15 K, 98.1 kPa | 806.282
298.15 K, 305.4 kPa | 806.45
298.15 K, 854.5 kPa | 806.874
298.15 K, 1980.9 kPa | 807.747
298.15 K, 3167.8 kPa | 808.637
298.15 K, 5067.6 kPa | 810.04
298.15 K, 7065.3 kPa | 811.55
298.15 K, 10107 kPa | 813.67
298.15 K, 20128 kPa | 820.445
298.15 K, 22004 kPa | 821.641
298.15 K, 25081 kPa | 823.55
298.15 K, 33113 kPa | 828.365
298.15 K, 33924 kPa | 828.845
298.15 K, 38097 kPa | 831.213
298.15 K, 40161 kPa | 832.357
298.15 K, 42029 kPa | 833.462
298.15 K, 42359 kPa | 833.614
298.15 K, 45021 kPa | 835.052
298.15 K, 48107 kPa | 836.745
298.15 K, 50068 kPa | 837.797
298.15 K, 55016 kPa | 840.375
298.15 K, 57931 kPa | 841.819
298.15 K, 59914 kPa | 842.826
298.15 K, 62036 kPa | 843.934
298.15 K, 65018 kPa | 845.412
298.16 K, 493.7 kPa | 806.599
298.16 K, 1012.6 kPa | 806.992
298.16 K, 9120.9 kPa | 813.012
298.16 K, 11970 kPa | 814.957
298.16 K, 15220 kPa | 817.234
298.16 K, 17984 kPa | 819.076
298.16 K, 28040 kPa | 825.42
298.16 K, 30089 kPa | 826.686
298.16 K, 32030 kPa | 827.814
298.16 K, 35217 kPa | 829.575
298.16 K, 52020 kPa | 838.835
298.16 K, 66118 kPa | 845.919
303.15 K, 304.1 kPa | 802.278
303.15 K, 498.9 kPa | 802.435
303.15 K, 900.6 kPa | 802.733
303.15 K, 979.1 kPa | 802.787
303.15 K, 1977.6 kPa | 803.554
303.15 K, 4930.4 kPa | 805.792
303.15 K, 11975 kPa | 810.901
303.15 K, 15044 kPa | 812.956
303.15 K, 19974 kPa | 816.207
